Tests used:
IRE1α* = molecular target: T1, IRE1α* (Homo sapiens, UniProt O75460); assay: In vitro kinase activity assay (IRE1α kinase inhibition); format: biochemical; conditions: for IC50: IRE1α kinase inhibition, read-out: IC50 IRE1a; for Ki: read-out: Inhibition of IRE1α*'s kinase activity, Ki
T1 construct: human IRE1α (residues 547-977, IRE1α*) was expressed in SF9 insect cells; His6 (N); made in house; host or cells: Sf9 insect cells (Bac-to-Bac baculovirus)
Protocol: A construct containing the cytosolic kinase and RNase domains of human IRE1α (residues 547-977, IRE1α*) was expressed in SF9 insect cells by using the Bac-to-Bac baculovirus expression system (Invitrogen) with a His6 tag at the N-terminus and purified with a nickel-nitriloacetic acid (Qiagen) column. To generate dP-IRE1α*, we removed basal phosphorylation sites by incubating IRE1α* with λ-PPase (New England Biolabs) at a molar ratio of 5:1 (IRE1α*: λ-PPase) in 50 mM HEPES pH 7.5, 100 mM NaCl, 1 mM MnCl2, 2 mM dithiothreitol (DTT) and 0.01% Brij 35 detergent (v/v) overnight at 4° C. Dephosphorylation was verified through western blotting using a universal phospho-protein detection agent (biotin-pIMAGO (Tymora Analytical Operations, Cat. No.: FL800) and imaged using a streptavidin-linked fluorophore.
In Vitro Kinase Activity Assay
Inhibitors (initial concentration of 10 or 60 μM, three-fold serial dilutions) were incubated with IRE1α* in cleavage buffer (20 mM HEPES, 0.05% Triton X-100 (v/v), 50 mM KCl, 1 mM MgCl2, 1 mM DTT, pH 7.5) for 30 min, followed by incubation with 10 μCi [γ^32P] ATP (3,000 Ci mmol^−1, PerkinElmer) at 23° C. for 3 hours. Samples were then spotted onto glass fiber paper (Easytab-C Glass Fiber Filter Paper, Perkin Elmer) and washed in twice with 0.5% phosphoric acid and autoradiographed using a GE Typhoon FLA 9000 Imager. Blots were quantitated using ImageQuant software. The percent inhibition was quantified by setting the background (no kinase well) as 0 and standardizing to IRE1α* without compound treatment (IRE1α*+DMSO). Dose-response curves were fit using “one-site fit log IC50” parameter using GraphPad Prism analysis software.
Compound Characterization (IC50 IRE1α Kinase Inhibition)

XBP1 mRNA splicing = XBP1 mRNA splicing in INS-1 cells conditionally overexpressing IRE1α (Dox); format: cell-based, rat; conditions: 3, 10 μM for 1 hour, then Dox (1 μg/mL) for 4 hours
Protocol: (§1) RNA Isolation, Quantitative Real-Time PCR, and Primers
(§2) INS-1 or isogenic IRE1α-overexpressing INS-1 cells were plated onto Poly-D-Lysine coated tissue culture plate and grown for 48 hrs. Inhibitors or DMSO were added to the media and incubated for 1 hour at 37° C. with 5% CO2 prior to addition of ER stress agents or Dox as indicated. RNA was isolated from whole cells using either QIAGEN RNeasy Mini kits or Trizol (Invitrogen) and reverse transcribed as above to obtain total cDNA. Then, XBP-1 primers were used to amplify an XBP-1 amplicon spanning the 26 nt intron from the cDNA samples in a regular 3-step PCR. Thermal cycles were: 5 min at 95° C., 30 cycles of 30 s at 95° C., 30 s at 60° C., and 1 min at 72° C., followed by 72° C. for 15 min, and hold at 4° C. Primers used for XBP-1 mRNA splicing were as follows: sense primer XBP1.3 S (5′ […]-3′ (SEQ ID NO:2)) and antisense primer XBP1.2AS (5′-[…]-3′ (SEQ ID NO:3)). PCR fragments were then digested by PstI, resolved on 3% agarose gels, stained with EtBr and quantified by densitometry using ImageJ (NIH). For standard mRNA detection, generally […] total RNA was reverse transcribed using the QuantiTect Reverse Transcription Kit (QIAGEN). For qPCR, we used SYBR green (QIAGEN) and StepOnePlus Real-Time PCR System (Applied Biosystems). Thermal cycles were: 5 min at 95° C., 40 cycles of 15 sec at 95° C., 30 sec at 60° C. Gene expression levels were normalized to Beta Actin. Primers used for qPCR of RIDD targets were as follows: Beta Actin Fwd: 5′-[…]-3′ (SEQ ID NO:4), Beta Actin Rev: 5′-[…]-3′ (SEQ ID NO:5), Insulin 1 Fwd: 5′-GTCCTCTGGGAGCCCAAG-3′ (SEQ ID NO:6), Insulin 1 Rev: 5′-ACAGAGCCTCCACCAGG-3′ (SEQ ID NO:7), Insulin 2 Fwd: 5′-ATCCTCTGGGAGCCCCGC-3′ (SEQ ID NO:8), Insulin 2 Rev: 5′-AGAGAGCTTCCACCAAG-3′ (SEQ ID NO:9), Blos1 Fwd: 5′-[…]-3′ (SEQ ID NO:10), and Blos1 Rev: 5′-[…]-3′ (SEQ ID NO:11).
(§3) RNA was extracted using Trizol (Invitrogen), DNaseI treated, and cDNA products encompassing the intron amplified by QuantiTect Reverse Transcription Kit (Qiagen). sense Primer rXBP Forward (5′-[…]-3′ (SEQ ID NO:12)) and antisense primer rXBP Reverse (5′-[…]-3′ (SEQ ID NO:13)) were used. PCR fragments were digested by PstI, resolved on 3% agarose gels, stained with EtBr, and quantified by densitometry.
as §3, with “XBP1 splicing for FIGS. 33A-33F: RNA” for “RNA”, “(Invitrogen),” for “(Invitrogen), DNaseI treated, and”, “(Qiagen). Sense” for “(Qiagen). sense”, “rXBP splicing” for “rXBP”

[1] = test system: RIDD (IRE1α-dependent mRNA decay); assay: Real-time PCR of RIDD mRNA targets in INS-1 cells overexpressing IRE1α (Dox); format: cell-based, rat; conditions: 3, 10 μM for 1 hour, then Dox (5 ng/mL) for 24 hours
Protocol: as §1, §2
Real-Time PCR (Q-PCR) used SYBR green and Step OnePlus Real-Time PCR System (Applied Biosystems). Thermal cycles were: 5 min at 95° C., 40 cycles of 15 s at 95° C., 30 s at 60° C. Gene expression levels were normalized to GAPDH. Q-PCR Sense/antisense primers used: Rat GAPDH, 5′-[…]-3′ (SEQ ID NO:14) and 5′-[…]-3′ (SEQ ID NO:15); Rat Ins1, 5′-GTCCTCTGGGAGCCCAAG-3′ (SEQ ID NO:6) and 5′-ACAGAGCCTCCACCAGG-3′ (SEQ ID NO:7); Rat Pdia4, 5′-CGTCTCGCCCTGATTCGT-3′ (SEQ ID NO:16) and 5′-[…]-3′ (SEQ ID NO:17); Rat Blos1, 5′-[…]-3′ (SEQ ID NO:18) and 5′-TGTCCAGTTCGATGCTCCG-3′ (SEQ ID NO:19).
Real-time PCR for FIGS. 34A-34F: Real-Time PCR (Q-PCR) used SYBR green and Step OnePlus Real-Time PCR System (Applied Biosystems). Thermal cycles were: 5 min at 95° C., 40 cycles of 15 s at 95° C., 30 s at 60° C. Gene expression levels were normalized to GAPDH. Q-PCR Sense/antisense primers used: Rat GAPDH, 5′-[…]-3′ (SEQ ID NO:20) and 5′-[…]-3′ (SEQ ID NO:21); Rat Ins1, 5′-GTCCTCTGGGAGCCCAAG-3′ (SEQ ID NO:6) and 5′-ACAGAGCCTCCACCAGG-3′ (SEQ ID NO:7); Rat Ins2, 5′-ATCCTCTGGGAGCCCCGC-3′ (SEQ ID NO:8) and 5′-AGAGAGCTTCCACCAAG-3′ (SEQ ID NO:9); Rat Pdia4, 5′-[…]-3′(SEQ ID NO:22) and 5′-[…]-3′ (SEQ ID NO:23); Rat Blos1, 5′-[…]-3′ (SEQ ID NO:18) and 5′-TGTCCAGTTCGATGCTCCG-3′ (SEQ ID NO:19).

T1 sequence (O75460 547-977): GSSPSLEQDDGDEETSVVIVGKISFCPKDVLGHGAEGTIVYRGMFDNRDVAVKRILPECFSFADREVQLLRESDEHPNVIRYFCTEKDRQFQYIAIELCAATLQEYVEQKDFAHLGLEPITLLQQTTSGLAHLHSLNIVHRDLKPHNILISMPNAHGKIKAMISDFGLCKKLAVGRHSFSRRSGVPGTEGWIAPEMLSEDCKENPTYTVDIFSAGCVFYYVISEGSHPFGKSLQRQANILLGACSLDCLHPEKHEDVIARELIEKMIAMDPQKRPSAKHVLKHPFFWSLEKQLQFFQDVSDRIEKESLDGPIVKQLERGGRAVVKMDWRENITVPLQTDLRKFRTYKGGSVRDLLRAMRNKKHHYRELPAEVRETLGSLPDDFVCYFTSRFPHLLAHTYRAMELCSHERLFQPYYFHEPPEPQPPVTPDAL

| Compound | IC50 (IRE1α*) [nM] | Ki (IRE1α*) [nM] | % spliced XBP1 amplicons (XBP1 mRNA splicing) | RIDD mRNA targets (Ins1, Ins2, Pdia4) [1] |
| --- | --- | --- | --- | --- |
| O=S(=O)(CC(F)(F)F)Nc1ccc(Oc2ncccc2-c2ccnc(N[C@@H]3CNC[C@@H](F)C3)n2)c2ccccc12 [LBC-0000398, 2,2,2-trifluoro-N-(4-((3-(2-(((3S,5S)-5-fluoropiperidin-3-yl)amino)pyrimidin-4-yl)pyridin-2-yl)oxy)naphthalen-1-yl) ethane-1-sulfonamide] | 7.2 |  |  |  |
| Nc1ccc(Oc2ncccc2-c2ccnc(N[C@H]3CC[C@H](N)CC3)n2)cc1F [compound 1, (1r,4r)-N1-(4-(2-(4-amino-3-fluorophenoxy)pyridin-3-yl)pyrimidin-2-yl) cyclohexane-1,4-diamine] |  | 480 |  |  |
| Cc1c(F)c(NS(=O)(=O)CC(F)(F)F)c2ccccc2c1Oc1ncccc1-c1ccnc(N[C@@H]2CNC[C@@H](F)C2)n1 [LBC-0000399, 2,2,2-trifluoro-N-(2-fluoro-4-((3-(2-(((3S,5S)-5-fluoropiperidin-3-yl)amino)pyrimidin-4-yl)pyridin-2-yl)oxy)-3-methylnaphthalen-1-yl) ethane-1-sulfonamide] | 5.1 |  |  |  |
| Cc1c(F)c(NS(C)(=O)=O)c2ccccc2c1Oc1ncccc1-c1ccnc(N[C@H]2CCCNC2)n1 [LBC-0000401, (S)—N-(2-fluoro-3-methyl-4-((3-(2-(piperidin-3-ylamino)pyrimidin-4-yl)pyridin-2-yl)oxy)naphthalen-1-yl) methane sulfonamide] | 16 |  |  |  |
| Cc1cc(NS(=O)(=O)C2CC2)c2ccccc2c1Oc1ncccc1-c1ccnc(N[C@@H]2CNC[C@@H](F)C2)n1 [LBC-412, N-(4-((3-(2-(((3S,5S)-5-fluoropiperidin-3-yl)amino)pyrimidin-4-yl)pyridin-2-yl)oxy)-3-methylnaphthalen-1-yl) cyclopropane sulfonamide] | 13 |  | do not suppress XBP mRNA splicing | block RIDD |
| Cc1c(F)c(NS(=O)(=O)CC(F)(F)F)c2ccccc2c1Oc1ncccc1-c1ccnc(N[C@H]2CCCNC2)n1 [LBC-0000390, (S)-2,2,2-trifluoro-N-(2-fluoro-3-methyl-4-((3-(2-(piperidin-3-ylamino)pyrimidin-4-yl)pyridin-2-yl)oxy)naphthalen-1-yl) ethane-1-sulfonamide] | 9.5 |  |  |  |

Now from value to molecule, other results behind:

| IC50 (IRE1α*) [nM] | Ki (IRE1α*) [nM] | Compound | % spliced XBP1 amplicons (XBP1 mRNA splicing) | RIDD mRNA targets (Ins1, Ins2, Pdia4) [1] |
| --- | --- | --- | --- | --- |
| 8 |  | Cc1cc(NS(=O)(=O)CC(F)(F)F)c2ccccc2c1Oc1ncccc1-c1ccnc(N[C@H]2CCCNC2)n1 [LBC-0000389, (S)-2,2,2-trifluoro-N-(3-methyl-4-((3-(2-(piperidin-3-ylamino)pyrimidin-4-yl)pyridin-2-yl)oxy)naphthalen-1-yl) ethane sulfonamide] |  |  |
| 4.4 |  | Cc1cc(NS(=O)(=O)C2CCC2)c2ccccc2c1Oc1ncccc1-c1ccnc(N[C@@H]2CNC[C@@H](F)C2)n1 [LBC-411, N-(4-((3-(2-(((3S,5S)-5-fluoropiperidin-3-yl)amino)pyrimidin-4-yl)pyridin-2-yl)oxy)-3-methylnaphthalen-1-yl)cyclobutanesulfonamide] | do not suppress XBP mRNA splicing | block RIDD |
| 3.4 |  | Cc1cc(NS(=O)(=O)CCC(F)(F)F)c2ccccc2c1Oc1ncccc1-c1ccnc(N[C@@H]2CNC[C@@H](F)C2)n1 [LBC-410, 3,3,3-trifluoro-N-(4-((3-(2-(((3S,5S)-5-fluoropiperidin-3-yl)amino)pyrimidin-4-yl)pyridin-2-yl)oxy)-3-methylnaphthalen-1-yl)propane-1-sulfonamide] | suppresses XBP1 splicing | block RIDD |
| 32 |  | Cc1cc(NS(=O)(=O)C2(C)CC2)c2ccccc2c1Oc1ncccc1-c1ccnc(N[C@@H]2CNC[C@@H](F)C2)n1 [LBC-413, N-(4-((3-(2-(((3S,5S)-5-fluoropiperidin-3-yl)amino)pyrimidin-4-yl)pyridin-2-yl)oxy)-3-methylnaphthalen-1-yl)-1-methylcyclopropane-1-sulfonamide] | do not suppress XBP mRNA splicing | block RIDD |
|  | 140 | N[C@H]1CC[C@H](Nc2nccc(-c3cccnc3Oc3ccc(NS(=O)(=O)C4CC4)c4ccccc34)n2)CC1 [compound 5, N-(4-(3-(2-((1r,4r)-4-aminocyclohexylamino)pyrimidin-4-yl)pyridin-2-yloxy)naphthalen-1-yl)cyclopropanesulfonamide] |  |  |
|  | 98 | N[C@H]1CC[C@H](Nc2nccc(-c3cccnc3Oc3cccc4c(NS(=O)(=O)C5CCC5)cccc34)n2)CC1 [compound 6, N-(5-(3-(2-((1r,4r)-4-aminocyclohexylamino)pyrimidin-4-yl)pyridin-2-yloxy)naphthalen-1-yl) cyclobutanesulfonamide] |  |  |
